Results taken from ChEMBL document CHEMBL5523766 (J Med Chem, 2024).

Key:
[1] = molecular target: Serine/threonine-protein kinase BRSK2 (Homo sapiens) (UniProt Q8IWQ3); experiment: Inhibition of human BRSK2 at 10 uM relative to control
[2] = Efflux ratio of apparent permeability across […] side in human Caco-2 cells; type: ADME, cell-based
[3] = molecular target: T1, Tyrosine-protein kinase Lck (Homo sapiens, UniProt P06239); experiment: Inhibition of human LCK
[4] = AUCinfinity in ICR mouse at 50 mg/kg,po measured upto 24 hrs by LC-MS/MS analysis; type: ADME, organism-based; details: in vivo
[5] = molecular target: Receptor-type tyrosine-protein kinase FLT3 (Homo sapiens) (UniProt P36888); experiment: Inhibition of human FLT3 at 10 uM relative to control
[6] = molecular target: T2, Cyclin-dependent kinase 2 (Homo sapiens, UniProt P24941); experiment: Inhibition of human CDK2
[7] = molecular target: T1, Tyrosine-protein kinase Lck; experiment: Inhibition of human LCK at 10 uM relative to control
CYP3A4 = CYP3A4 (Homo sapiens, UniProt P08684); experiment: Time dependent inhibition of CYP3A4 (unknown origin) at 10 uM relative to control; type: ADME; details: read-out: TDI
[8] = Tmax in ICR mouse at 50 mg/kg,po measured upto 24 hrs by LC-MS/MS analysis; type: ADME, organism-based; details: in vivo
[9] = Half life in ICR mouse at 50 mg/kg,po measured upto 24 hrs by LC-MS/MS analysis; type: ADME, organism-based; details: in vivo
[10] = molecular target: T2, Cyclin-dependent kinase 2; experiment: Inhibition of human CDK2 at 10 uM relative to control
DLD-1 = experiment: Antiproliferative activity against human DLD-1 cells assessed as inhibition of cell growth incubated for 72 hrs by MTS assay; type: functional, cell-based; details: DLD-1, 72 h
[11] = molecular target: T3, Tyrosine-protein kinase JAK1 (Homo sapiens, UniProt P23458); experiment: Inhibition of human JAK1
T3 sequence (P23458 whole entry): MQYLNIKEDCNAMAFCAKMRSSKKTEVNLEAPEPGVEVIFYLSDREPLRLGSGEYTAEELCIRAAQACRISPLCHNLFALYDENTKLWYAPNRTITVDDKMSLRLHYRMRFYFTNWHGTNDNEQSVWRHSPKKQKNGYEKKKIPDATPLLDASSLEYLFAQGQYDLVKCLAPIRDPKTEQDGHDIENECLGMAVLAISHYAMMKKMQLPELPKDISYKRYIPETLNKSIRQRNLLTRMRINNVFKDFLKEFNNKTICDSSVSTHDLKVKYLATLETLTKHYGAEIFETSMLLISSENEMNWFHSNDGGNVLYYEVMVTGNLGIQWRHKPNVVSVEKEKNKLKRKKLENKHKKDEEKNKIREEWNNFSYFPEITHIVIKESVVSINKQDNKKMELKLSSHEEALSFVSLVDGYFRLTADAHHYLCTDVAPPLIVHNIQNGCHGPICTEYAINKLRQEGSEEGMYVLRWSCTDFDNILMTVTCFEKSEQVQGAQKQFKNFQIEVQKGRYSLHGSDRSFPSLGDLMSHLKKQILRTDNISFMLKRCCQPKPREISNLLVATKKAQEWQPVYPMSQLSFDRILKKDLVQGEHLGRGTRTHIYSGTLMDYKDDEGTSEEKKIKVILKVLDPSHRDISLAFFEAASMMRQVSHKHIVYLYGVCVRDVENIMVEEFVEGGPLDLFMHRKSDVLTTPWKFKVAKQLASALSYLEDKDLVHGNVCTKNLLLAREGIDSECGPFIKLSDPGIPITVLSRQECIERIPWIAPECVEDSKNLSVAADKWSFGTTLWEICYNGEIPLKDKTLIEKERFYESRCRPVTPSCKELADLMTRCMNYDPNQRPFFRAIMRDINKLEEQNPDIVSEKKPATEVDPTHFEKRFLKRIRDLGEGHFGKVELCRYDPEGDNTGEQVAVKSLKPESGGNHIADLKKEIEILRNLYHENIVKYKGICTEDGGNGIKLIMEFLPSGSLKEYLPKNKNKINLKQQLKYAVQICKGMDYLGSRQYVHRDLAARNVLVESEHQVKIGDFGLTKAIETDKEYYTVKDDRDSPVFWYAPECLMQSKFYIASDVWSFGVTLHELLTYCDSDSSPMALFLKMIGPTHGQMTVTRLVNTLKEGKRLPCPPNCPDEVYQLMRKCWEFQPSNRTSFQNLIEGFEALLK

[12] = molecular target: Interleukin-1 receptor-associated kinase 4 (Homo sapiens, UniProt Q9NWZ3); experiment: Inhibition of human IRAK4
[13] = molecular target: Serine/threonine-protein kinase BRSK2 (Homo sapiens, UniProt Q8IWQ3); experiment: Inhibition of human BRSK2
Sequence of Serine/threonine-protein kinase BRSK2 (Q8IWQ3 whole entry): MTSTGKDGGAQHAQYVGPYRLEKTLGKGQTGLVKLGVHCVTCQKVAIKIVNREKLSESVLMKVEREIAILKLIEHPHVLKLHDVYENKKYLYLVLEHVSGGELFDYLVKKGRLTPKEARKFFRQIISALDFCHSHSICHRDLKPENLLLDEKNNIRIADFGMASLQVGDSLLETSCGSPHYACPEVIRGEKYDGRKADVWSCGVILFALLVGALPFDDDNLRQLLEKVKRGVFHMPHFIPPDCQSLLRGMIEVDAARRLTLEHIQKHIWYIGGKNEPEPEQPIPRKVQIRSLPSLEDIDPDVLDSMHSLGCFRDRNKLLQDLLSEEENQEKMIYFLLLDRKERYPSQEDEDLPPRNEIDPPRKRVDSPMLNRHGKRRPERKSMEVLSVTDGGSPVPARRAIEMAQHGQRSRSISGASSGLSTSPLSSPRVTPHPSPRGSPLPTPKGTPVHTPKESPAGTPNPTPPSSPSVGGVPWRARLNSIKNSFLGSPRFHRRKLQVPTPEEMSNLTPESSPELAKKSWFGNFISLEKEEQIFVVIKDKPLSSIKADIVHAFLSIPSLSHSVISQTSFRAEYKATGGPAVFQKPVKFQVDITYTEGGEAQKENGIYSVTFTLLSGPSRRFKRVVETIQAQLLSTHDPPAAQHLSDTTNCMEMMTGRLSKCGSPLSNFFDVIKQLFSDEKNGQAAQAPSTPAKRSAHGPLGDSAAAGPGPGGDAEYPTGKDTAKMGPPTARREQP

[14] = Cmax in ICR mouse at 50 mg/kg,po measured upto 24 hrs by LC-MS/MS analysis; type: ADME, organism-based; details: in vivo
OCI-Ly10 = experiment: Antiproliferative activity against human OCI-Ly10 cells assessed as inhibition of cell growth incubated for 72 hrs by MTS assay; type: functional, cell-based; details: OCI-Ly10, 72 h
[15] = Apparent permeability across basolateral to apical side in human Caco-2 cells; type: ADME, cell-based
ATR/ATRIP = ATR/ATRIP (Homo sapiens, UniProt Q13535); experiment: Inhibition of ATR/ATRIP (unknown origin) using 5-FAM-AK-17 as substrate preincubated with compound for 10 mins followed by ATP addition and measured after 240 mins by mobility shift assay; type: protein-complex assay
[16] = molecular target: Tyrosine-protein kinase Mer (Homo sapiens, UniProt Q12866); experiment: Inhibition of human MER
[17] = molecular target: NUAK family SNF1-like kinase 1 (Homo sapiens) (UniProt O60285); experiment: Inhibition of human ARK5 at 10 uM relative to control
[18] = Apparent permeability across apical to basolateral side in human Caco-2 cells; type: ADME, cell-based
[19] = molecular target: T4, Tyrosine-protein kinase BTK (Homo sapiens, UniProt Q06187); experiment: Inhibition of human BTK
T4 sequence (Q06187 whole entry): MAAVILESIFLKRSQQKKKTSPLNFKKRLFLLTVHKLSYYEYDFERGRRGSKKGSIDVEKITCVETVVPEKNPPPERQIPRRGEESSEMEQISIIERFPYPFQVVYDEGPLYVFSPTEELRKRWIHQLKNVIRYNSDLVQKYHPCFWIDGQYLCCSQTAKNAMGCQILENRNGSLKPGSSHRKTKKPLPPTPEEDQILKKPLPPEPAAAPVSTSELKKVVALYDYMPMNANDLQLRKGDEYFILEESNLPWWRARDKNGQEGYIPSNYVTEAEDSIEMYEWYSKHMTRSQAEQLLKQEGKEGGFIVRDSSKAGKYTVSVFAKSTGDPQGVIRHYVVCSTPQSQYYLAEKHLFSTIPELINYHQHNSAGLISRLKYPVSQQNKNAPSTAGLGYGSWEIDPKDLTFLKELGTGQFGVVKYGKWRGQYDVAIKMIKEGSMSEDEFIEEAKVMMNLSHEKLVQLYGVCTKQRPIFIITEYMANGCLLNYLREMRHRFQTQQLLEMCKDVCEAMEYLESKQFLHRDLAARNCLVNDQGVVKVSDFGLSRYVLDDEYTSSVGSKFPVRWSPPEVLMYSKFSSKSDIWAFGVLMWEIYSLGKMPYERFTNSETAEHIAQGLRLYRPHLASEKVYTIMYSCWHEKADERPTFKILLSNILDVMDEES

[20] = molecular target: Interleukin-1 receptor-associated kinase 4 (Homo sapiens) (UniProt Q9NWZ3); experiment: Inhibition of human IRAK4 at 10 uM relative to control
Granta-519 = experiment: Antiproliferative activity against human Granta-519 cells assessed as inhibition of cell growth incubated for 72 hrs by MTS assay; type: functional, cell-based; details: Granta-519, 72 h
SUD4 = experiment: Antiproliferative activity against human SU-DHL-4 cells assessed as inhibition of cell growth incubated for 72 hrs by MTS assay; type: functional, cell-based; details: SU-DHL-4, 72 h
AMPK alpha2/beta1/gamma1 = AMPK alpha2/beta1/gamma1 (Homo sapiens, UniProt P54619+P54646+Q9Y478); experiment: Inhibition of human AMPK alpha2/beta1/gamma1; type: protein-complex assay
Sequence of AMPK alpha2/beta1/gamma1 (P54646 whole entry): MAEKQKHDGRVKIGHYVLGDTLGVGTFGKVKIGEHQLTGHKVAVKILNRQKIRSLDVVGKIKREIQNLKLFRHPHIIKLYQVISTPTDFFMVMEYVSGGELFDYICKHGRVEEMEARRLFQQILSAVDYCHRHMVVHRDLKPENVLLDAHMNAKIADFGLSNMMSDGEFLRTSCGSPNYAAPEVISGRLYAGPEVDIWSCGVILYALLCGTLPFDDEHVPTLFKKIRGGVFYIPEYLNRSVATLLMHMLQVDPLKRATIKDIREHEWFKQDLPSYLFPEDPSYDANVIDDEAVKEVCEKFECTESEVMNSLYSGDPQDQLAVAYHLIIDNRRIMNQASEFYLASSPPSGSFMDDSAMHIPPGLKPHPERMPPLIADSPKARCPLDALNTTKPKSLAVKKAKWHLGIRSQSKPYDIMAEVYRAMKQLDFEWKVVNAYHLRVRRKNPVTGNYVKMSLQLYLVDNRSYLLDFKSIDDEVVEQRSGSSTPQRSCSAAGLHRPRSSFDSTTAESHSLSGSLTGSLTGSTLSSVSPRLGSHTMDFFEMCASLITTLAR
Sequence of AMPK alpha2/beta1/gamma1 (P54619 whole entry): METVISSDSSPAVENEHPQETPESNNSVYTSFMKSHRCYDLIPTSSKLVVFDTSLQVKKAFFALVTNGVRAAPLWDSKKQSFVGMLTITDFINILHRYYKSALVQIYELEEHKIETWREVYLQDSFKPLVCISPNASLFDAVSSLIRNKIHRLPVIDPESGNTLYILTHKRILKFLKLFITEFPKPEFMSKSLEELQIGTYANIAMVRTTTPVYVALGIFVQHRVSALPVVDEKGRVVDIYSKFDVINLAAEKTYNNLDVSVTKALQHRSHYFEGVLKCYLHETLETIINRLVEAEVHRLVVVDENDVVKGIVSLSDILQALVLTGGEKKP
Sequence of AMPK alpha2/beta1/gamma1 (Q9Y478 whole entry): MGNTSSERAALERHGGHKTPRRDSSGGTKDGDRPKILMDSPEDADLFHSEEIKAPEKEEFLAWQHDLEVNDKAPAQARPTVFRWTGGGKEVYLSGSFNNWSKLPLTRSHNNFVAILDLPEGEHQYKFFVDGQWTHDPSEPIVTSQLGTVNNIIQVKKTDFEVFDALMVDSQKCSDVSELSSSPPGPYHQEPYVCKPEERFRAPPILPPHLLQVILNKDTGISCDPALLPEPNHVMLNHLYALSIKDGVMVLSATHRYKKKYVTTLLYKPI

[21] = molecular target: T5, Serine/threonine-protein kinase mTOR (Homo sapiens, UniProt P42345); experiment: Inhibition of human mTOR at 10 uM relative to control
[22] = molecular target: T4, Tyrosine-protein kinase BTK; experiment: Inhibition of human BTK at 10 uM relative to control
CYP2C19 = CYP2C19 (Homo sapiens, UniProt P33261); experiment: Time dependent inhibition of CYP2C19 (unknown origin) at 10 uM relative to control; type: ADME; details: read-out: TDI
[23] = molecular target: Tyrosine-protein kinase Mer (Homo sapiens) (UniProt Q12866); experiment: Inhibition of human MER at 10 uM relative to control
CAPAN-1 = experiment: Antiproliferative activity against human CAPAN-1 cells assessed as inhibition of cell growth incubated for 72 hrs by MTS assay; type: functional, cell-based; details: CAPAN-1, 72 h
Aurora kinase B [24] = molecular target: T6, Aurora kinase B (Homo sapiens, UniProt Q96GD4); experiment: Inhibition of human Aurora B
T6 sequence (Q96GD4 whole entry): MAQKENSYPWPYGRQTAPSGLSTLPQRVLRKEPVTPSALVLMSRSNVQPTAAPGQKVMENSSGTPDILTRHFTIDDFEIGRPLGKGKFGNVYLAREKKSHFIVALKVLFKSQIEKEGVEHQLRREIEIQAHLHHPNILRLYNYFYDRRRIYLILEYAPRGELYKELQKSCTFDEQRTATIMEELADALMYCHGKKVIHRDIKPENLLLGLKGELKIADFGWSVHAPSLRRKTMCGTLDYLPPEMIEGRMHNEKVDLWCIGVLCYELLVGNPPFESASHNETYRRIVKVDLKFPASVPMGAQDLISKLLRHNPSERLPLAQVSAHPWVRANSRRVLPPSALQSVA

LoVo = experiment: Antiproliferative activity against human LoVo cells assessed as inhibition of cell growth incubated for 72 hrs by MTS assay; type: functional, cell-based
[25] = Lipophilicity, logD of compound at pH 7.4; type: physicochemical; details: buffer
CYP2C9 = CYP2C9 (Homo sapiens, UniProt P11712); experiment: Time dependent inhibition of CYP2C9 (unknown origin) at 10 uM relative to control; type: ADME; details: read-out: TDI
HT-29 = experiment: Antiproliferative activity against human HT-29 cells assessed as inhibition of cell growth incubated for 72 hrs by MTS assay; type: functional, cell-based; details: HT-29, 72 h
NCI-H446 = experiment: Antiproliferative activity against human NCI-H446 cells assessed as inhibition of cell growth incubated for 72 hrs by MTS assay; type: functional, cell-based; details: NCI-H446, 72 h
[26] = molecular target: Serine/threonine-protein kinase 17B (Homo sapiens, UniProt O94768); experiment: Inhibition of human DRAK2
[27] = molecular target: T3, Tyrosine-protein kinase JAK1; experiment: Inhibition of human JAK1 at 10 uM relative to control
[28] = molecular target: Serine/threonine-protein kinase 17B (Homo sapiens) (UniProt O94768); experiment: Inhibition of human DRAK2 at 10 uM relative to control
PC-3 = experiment: Antiproliferative activity against human PC-3 cells assessed as inhibition of cell growth incubated for 72 hrs by MTS assay; type: functional, cell-based; details: PC-3, 72 h
[29] = molecular target: T5, Serine/threonine-protein kinase mTOR; experiment: Inhibition of human mTOR
[30] = Plasma protein binding in mouse; type: ADME, cell-free; details: read-out: PPB (converted)
[31] = molecular target: NUAK family SNF1-like kinase 1 (Homo sapiens, UniProt O60285); experiment: Inhibition of human ARK5
[32] = molecular target: Tyrosine-protein kinase ABL1 (Homo sapiens, UniProt P00519); experiment: Inhibition of human ABL
CYP2D6 = CYP2D6 (Homo sapiens, UniProt P10635); experiment: Time dependent inhibition of CYP2D6 (unknown origin) at 10 uM relative to control; type: ADME; details: read-out: TDI
Sequence of CYP2D6 (P10635 whole entry): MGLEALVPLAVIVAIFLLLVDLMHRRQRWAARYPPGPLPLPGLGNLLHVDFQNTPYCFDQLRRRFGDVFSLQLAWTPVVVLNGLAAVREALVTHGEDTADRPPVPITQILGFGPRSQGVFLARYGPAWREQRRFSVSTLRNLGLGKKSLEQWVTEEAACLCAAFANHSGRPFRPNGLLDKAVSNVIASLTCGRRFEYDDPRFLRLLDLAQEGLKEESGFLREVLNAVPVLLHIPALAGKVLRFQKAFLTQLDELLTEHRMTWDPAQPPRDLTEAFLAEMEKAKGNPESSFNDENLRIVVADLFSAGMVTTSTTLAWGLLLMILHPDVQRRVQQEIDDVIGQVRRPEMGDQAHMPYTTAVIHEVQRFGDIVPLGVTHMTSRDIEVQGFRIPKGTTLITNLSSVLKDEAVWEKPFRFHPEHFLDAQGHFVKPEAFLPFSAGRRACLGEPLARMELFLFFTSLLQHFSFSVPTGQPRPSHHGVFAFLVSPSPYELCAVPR

[33] = Apparent permeability across basolateral to apical side in dog MDCK-MDR1 cells; type: ADME, cell-based, Canis lupus familiaris
[34] = molecular target: T7, Tyrosine-protein kinase Lyn (Homo sapiens, UniProt P07948); experiment: Inhibition of human LYN at 10 uM relative to control
[35] = Efflux ratio of apparent permeability across […] side in dog MDCK-MDR1 cells; type: ADME, cell-based, Canis lupus familiaris
CYP1A2 = CYP1A2 (Homo sapiens, UniProt P05177); experiment: Time dependent inhibition of CYP1A2 (unknown origin) at 10 uM relative to control; type: ADME; details: read-out: TDI
[36] = AUClast in ICR mouse at 50 mg/kg,po measured upto 24 hrs by LC-MS/MS analysis; type: ADME, organism-based; details: in vivo
Aurora kinase B [37] = molecular target: T6, Aurora kinase B; experiment: Inhibition of human Aurora B at 10 uM relative to control
[38] = molecular target: Receptor-type tyrosine-protein kinase FLT3 (Homo sapiens, UniProt P36888); experiment: Inhibition of human FLT3
[39] = molecular target: T7, Tyrosine-protein kinase Lyn; experiment: Inhibition of human LYN
HCT-116 = experiment: Antiproliferative activity against human HCT-116 cells assessed as inhibition of cell growth incubated for 72 hrs by MTS assay; type: functional, cell-based; details: HCT-116, 72 h
[40] = Apparent permeability across apical to basolateral side in dog MDCK-MDR1 cells; type: ADME, cell-based, Canis lupus familiaris
A2780 = experiment: Antiproliferative activity against human A2780 cells assessed as inhibition of cell growth incubated for 72 hrs by MTS assay; type: functional, cell-based; details: A2780, 72 h
[41] = molecular target: AMPK alpha2/beta1/gamma1 (Homo sapiens) (UniProt P54646+P54619+Q9Y478); experiment: Inhibition of human AMPK alpha2/beta1/gamma1 at 10 uM relative to control; type: protein-complex assay
Sequence of AMPK alpha2/beta1/gamma1 (Homo sapiens) (P54619 whole entry partner): as the sequence (P54619 whole entry) above
Sequence of AMPK alpha2/beta1/gamma1 (Homo sapiens) (P54646 whole entry): as the sequence (P54646 whole entry) above
Sequence of AMPK alpha2/beta1/gamma1 (Homo sapiens) (Q9Y478 2-270 partner limits assumed): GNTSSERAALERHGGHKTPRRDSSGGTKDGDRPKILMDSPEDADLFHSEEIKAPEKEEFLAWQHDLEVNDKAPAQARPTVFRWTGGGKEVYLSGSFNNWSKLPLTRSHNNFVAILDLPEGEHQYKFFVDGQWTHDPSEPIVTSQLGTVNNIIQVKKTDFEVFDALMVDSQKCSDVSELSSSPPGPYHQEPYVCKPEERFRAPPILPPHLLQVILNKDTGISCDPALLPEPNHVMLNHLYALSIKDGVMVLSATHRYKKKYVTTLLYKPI

Sequence of Serine/threonine-protein kinase BRSK2 (Homo sapiens) (Q8IWQ3 whole entry): as the sequence (Q8IWQ3 whole entry) above

inhibition [1]: 21.6%
efflux ratio [2]: 1.41
IC50 [3]: 4950 nM
AUC(0-inf) [4]: 46700 ng·h/mL
inhibition [5]: 62.8%
IC50 [6]: > 10000 nM
inhibition [7]: 79.2%
inhibition at 10 µM (CYP3A4): 18.6%
Tmax [8]: 0.5 h
half-life [9]: 2.01 h
inhibition [10]: 5.98%
IC50 (DLD-1): 460 nM
IC50 [11]: > 10000 nM
IC50 [12]: > 10000 nM
IC50 [13]: > 10000 nM
Cmax [14]: 18900 ng/mL
IC50 (OCI-Ly10): 100 nM
Papp B→A [15]: 30.2 ×10⁻⁶ cm/s
IC50 (ATR/ATRIP): 1.6 nM
IC50 [16]: > 10000 nM
inhibition [17]: 20.5%
Papp A→B [18]: 21.5 ×10⁻⁶ cm/s
IC50 [19]: > 10000 nM
inhibition [20]: 46.1%
IC50 (AMPK alpha2/beta1/gamma1): > 10000 nM
inhibition [21]: 102%
inhibition [22]: 41.8%
inhibition at 10 µM (CYP2C19): 0%
inhibition [23]: 35.7%
IC50 (Aurora kinase B [24]): > 10000 nM
IC50 (LoVo): 150 nM
logD [25]: 3.11
inhibition at 10 µM (CYP2C9): 0%
IC50 (HT-29): 350 nM
IC50 (NCI-H446): 230 nM
IC50 [26]: > 10000 nM
inhibition [27]: 29.5%
inhibition [28]: 24.6%
IC50 (PC-3): 780 nM
IC50 [29]: 22.4 nM
fraction unbound [30]: 0.006
IC50 [31]: > 10000 nM
IC50 [32]: > 10000 nM
inhibition at 10 µM (CYP2D6): 3.71%
Papp B→A [33]: 29 ×10⁻⁶ cm/s
inhibition [34]: 13.3%
efflux ratio [35]: 4.81
inhibition at 10 µM (CYP1A2): 28.6%
AUC(0-t) at 24 h [36]: 46700 ng·h/mL
inhibition (Aurora kinase B [37]): 22.5%
IC50 [38]: > 10000 nM
IC50 [39]: > 10000 nM
IC50 (HCT-116): 150 nM
Papp A→B [40]: 6.02 ×10⁻⁶ cm/s
IC50 (A2780): 90 nM
inhibition [41]: 1.11%
SMILES: C[C@@H]1COCCN1c1nc(-c2cncc3[nH]ccc23)nc2c1ccn2S(C)(=O)=O
IC50 (Granta-519): 100 nM
IC50 (SUD4): 300 nM
IC50 (CAPAN-1): 820 nM
